Structures are written as SMILES. Values after ≈ are worked out from the molar mass of the structure shown.

Results on 21 compounds are retold here after ChEMBL document CHEMBL4665860, “Focused structure-activity relationship profiling around the 2-phenylindole scaffold of a cannabinoid type-1 receptor agonist-positive allosteric modulator: site-III aromatic-ring congeners with enhanced activity and solubility” (Bioorg Med Chem, 2020).

T1 sequence (P21554 whole entry): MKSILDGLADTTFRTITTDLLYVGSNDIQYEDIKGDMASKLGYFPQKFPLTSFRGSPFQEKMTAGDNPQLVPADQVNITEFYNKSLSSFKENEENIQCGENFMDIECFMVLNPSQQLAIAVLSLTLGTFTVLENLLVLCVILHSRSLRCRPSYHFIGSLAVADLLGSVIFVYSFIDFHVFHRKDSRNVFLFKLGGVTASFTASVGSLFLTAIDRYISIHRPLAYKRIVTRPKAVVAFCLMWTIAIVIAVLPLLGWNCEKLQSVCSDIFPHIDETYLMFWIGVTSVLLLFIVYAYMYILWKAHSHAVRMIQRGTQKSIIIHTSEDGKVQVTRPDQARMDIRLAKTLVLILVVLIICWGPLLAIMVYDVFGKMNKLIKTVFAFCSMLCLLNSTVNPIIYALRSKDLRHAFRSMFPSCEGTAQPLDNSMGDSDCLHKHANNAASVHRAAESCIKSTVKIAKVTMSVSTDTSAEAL

One data set has as its target T1, Cannabinoid receptor 1 (Homo sapiens, UniProt P21554). Put plainly: Positive allosteric modulatory activity at human CB1 receptor expressed in CHO-K1 cells assessed as increase in CP55940-induced beta-arrestin recruitment […] and measured after 60 mins by PathHunter assay. Format: cell-based.
Conditions: not given
For `O=[N+]([O-])CC(c1ccc[nH]1)c1c(-c2ccccc2)[nH]c2ccccc12` (configuration not stated), the 50% effective concentration (EC50) is greater than 10000 nM.

On to `O=[N+]([O-])CC(c1cccc(N2CCCC2)c1)c1c(-c2ccccc2)[nH]c2ccccc12` (configuration not stated), for which the EC50 is greater than 10000 nM.

For the compound `Cc1ccc2c(C(C[N+](=O)[O-])c3cccs3)c(-c3ccccc3)[nH]c2c1` (configuration not stated), the EC50 came to 379 nM.

For `O=[N+]([O-])CC(c1ccccc1Cl)c1c(-c2ccccc2)[nH]c2ccccc12` (configuration not stated), the concentration for a half-maximal effect (EC50) was 1240 nM.

On to `Cn1cnc(C(C[N+](=O)[O-])c2c(-c3ccccc3)[nH]c3ccccc23)c1` (configuration not stated), for which the concentration giving a half-maximal response (EC50) was greater than 10000 nM.

For the compound `O=[N+]([O-])CC(c1ccccc1C(F)(F)F)c1c(-c2ccccc2)[nH]c2ccccc12` (configuration not stated), the half-maximal effective concentration (EC50) stood at 792 nM.

With `O=[N+]([O-])CC(c1ccccc1F)c1c(-c2ccccc2)[nH]c2ccccc12` (configuration not stated), the half-maximal effective concentration (EC50) worked out at 782 nM.

For `COc1cccc(C(C[N+](=O)[O-])c2c(-c3ccccc3)[nH]c3ccccc23)c1` (configuration not stated), the EC50 was greater than 10000 nM.

For the compound `O=[N+]([O-])CC(c1ccsc1)c1c(-c2ccccc2)[nH]c2ccccc12` (configuration not stated), the EC50 was 1610 nM.

With `O=[N+]([O-])CC(c1ccc(N2CCOCC2)cc1)c1c(-c2ccccc2)[nH]c2ccccc12` (configuration not stated), the concentration giving a half-maximal response (EC50) is greater than 10000 nM.

Regarding `O=[N+]([O-])CC(c1cccc(F)c1)c1c(-c2ccccc2)[nH]c2ccccc12` (configuration not stated), the EC50 was greater than 10000 nM.

`Cc1ccc(C(C[N+](=O)[O-])c2c(-c3ccccc3)[nH]c3ccccc23)cc1` (configuration not stated): the EC50 is greater than 10000 nM.

Regarding `O=[N+]([O-])CC(c1c(-c2ccccc2)[nH]c2ccccc12)C1CCCCC1` (configuration not stated), the EC50 is 1900 nM.

Turning to `Cn1ccnc1C(C[N+](=O)[O-])c1c(-c2ccccc2)[nH]c2ccccc12` (configuration not stated), the EC50 was greater than 10000 nM.

For `O=[N+]([O-])CC(c1ccoc1)c1c(-c2ccccc2)[nH]c2ccccc12` (configuration not stated), the 50% effective concentration (EC50) is greater than 10000 nM.

Consider `Cc1ccc2c(C(C[N+](=O)[O-])c3nccs3)c(-c3ccccc3)[nH]c2c1` (configuration not stated), for which the half-maximal effective concentration (EC50) came to 163 nM.

Regarding `Cc1cccc(C(C[N+](=O)[O-])c2c(-c3ccccc3)[nH]c3ccccc23)c1` (configuration not stated), the EC50 stood at 1990 nM.

For `O=[N+]([O-])CC(c1ccc(-c2ccccc2)cc1)c1c(-c2ccccc2)[nH]c2ccccc12` (configuration not stated), the EC50 was greater than 10000 nM.

`O=[N+]([O-])CC(c1ccc(N2CCCC2)cc1)c1c(-c2ccccc2)[nH]c2ccccc12` (configuration not stated): the EC50 is greater than 10000 nM.

For `O=[N+]([O-])CC(c1ccc(F)cc1)c1c(-c2ccccc2)[nH]c2ccccc12` (configuration not stated), the EC50 is greater than 10000 nM.

In another data set the target is T1, Cannabinoid receptor 1. Put plainly: Positive allosteric modulatory activity at human CB1 receptor expressed in CHO-K1 cells assessed as increase in CP55940-induced inhibition of forskolin-stimulated cAMP production preincubated for 30 mins followed by CP55940 addition and measured after 60 mins by Hit-hunter assay relative to control.
Conditions: not given
It is filed as functional, cell-based.
`Cn1cnc(C(C[N+](=O)[O-])c2c(-c3ccccc3)[nH]c3ccccc23)c1` (configuration not stated): the Emax amounted to 34.4%.

As for `O=[N+]([O-])CC(c1ccc(-c2ccccc2)cc1)c1c(-c2ccccc2)[nH]c2ccccc12` (configuration not stated), the Emax was 25.5%.

Still in this data set, the particulars now being: filed as positive allosteric modulator.
As for `O=[N+]([O-])CC(c1ccc[nH]1)c1c(-c2ccccc2)[nH]c2ccccc12` (configuration not stated), the maximum response (Emax) was found to be 77.1%.

Consider `O=[N+]([O-])CC(c1cccc(N2CCCC2)c1)c1c(-c2ccccc2)[nH]c2ccccc12` (configuration not stated), for which the maximal effect (Emax) is 110%.

On to `O=[N+]([O-])CC(c1ccccc1Cl)c1c(-c2ccccc2)[nH]c2ccccc12` (configuration not stated), for which the Emax amounted to 75%.

In the case of `O=[N+]([O-])CC(c1ccccc1)c1c(-c2ccccc2)[nH]c2ccccc12` (configuration not stated), the maximal response (Emax) amounted to 99.6%.

In the case of `O=[N+]([O-])CC(c1ccccc1C(F)(F)F)c1c(-c2ccccc2)[nH]c2ccccc12` (configuration not stated), the maximal effect (Emax) worked out at 86.2%.

As to `COc1cccc(C(C[N+](=O)[O-])c2c(-c3ccccc3)[nH]c3ccccc23)c1` (configuration not stated), the maximal response (Emax) is 131%.

In the case of `O=[N+]([O-])CC(c1ccsc1)c1c(-c2ccccc2)[nH]c2ccccc12` (configuration not stated), the Emax stood at 125%.

For the compound `O=[N+]([O-])CC(c1ccc(N2CCOCC2)cc1)c1c(-c2ccccc2)[nH]c2ccccc12` (configuration not stated), the Emax was 87.6%.

As to `O=[N+]([O-])CC(c1cccc(F)c1)c1c(-c2ccccc2)[nH]c2ccccc12` (configuration not stated), the Emax amounted to 118%.

Regarding `Cc1ccc(C(C[N+](=O)[O-])c2c(-c3ccccc3)[nH]c3ccccc23)cc1` (configuration not stated), the Emax was determined as 119%.

In the case of `O=[N+]([O-])CC(c1c(-c2ccccc2)[nH]c2ccccc12)C1CCCCC1` (configuration not stated), the Emax was 117%.

In the case of `Cn1ccnc1C(C[N+](=O)[O-])c1c(-c2ccccc2)[nH]c2ccccc12` (configuration not stated), the Emax amounted to 52.7%.

In the case of `O=[N+]([O-])CC(c1ccoc1)c1c(-c2ccccc2)[nH]c2ccccc12` (configuration not stated), the Emax came out at 144%.

As for `Cc1ccc2c(C(C[N+](=O)[O-])c3nccs3)c(-c3ccccc3)[nH]c2c1` (configuration not stated), the maximum response (Emax) is 98.5%.

For `Cc1cccc(C(C[N+](=O)[O-])c2c(-c3ccccc3)[nH]c3ccccc23)c1` (configuration not stated), the Emax came to 116%.

For the compound `O=[N+]([O-])CC(c1ccc(N2CCCC2)cc1)c1c(-c2ccccc2)[nH]c2ccccc12` (configuration not stated), the Emax stood at 97.4%.

Tested on in another data set: not listed separately
Kind of data set: physchem. Particulars: PBS, pH 7.4.
For `Cc1ccc2c(C(C[N+](=O)[O-])c3cccs3)c(-c3ccccc3)[nH]c2c1` (configuration not stated), the solubility (kinetic) at 2 h was 1.56 µM (≈ 0.565 µg/mL).

`Cc1ccc2c(C(C[N+](=O)[O-])c3nccs3)c(-c3ccccc3)[nH]c2c1` (configuration not stated) gave a solubility (kinetic) at 2 h of 3.13 µM (≈ 1.14 µg/mL).

A further data set has as its target T1, Cannabinoid receptor 1. Kind of data set: Positive allosteric modulatory activity at human CB1 receptor expressed in CHO-K1 cells assessed as increase in CP55940-induced inhibition of forskolin-stimulated cAMP production preincubated for 30 mins […] by Hit-hunter assay. Format: functional, cell-based.
Conditions: not given
`O=[N+]([O-])CC(c1ccc[nH]1)c1c(-c2ccccc2)[nH]c2ccccc12` (configuration not stated): the concentration for a half-maximal effect (EC50) came out at 209 nM.

Regarding `O=[N+]([O-])CC(c1cccc(N2CCCC2)c1)c1c(-c2ccccc2)[nH]c2ccccc12` (configuration not stated), the concentration giving a half-maximal response (EC50) came out at 423 nM.

Consider `Cc1ccc2c(C(C[N+](=O)[O-])c3cccs3)c(-c3ccccc3)[nH]c2c1` (configuration not stated), for which the 50% effective concentration (EC50) is 33 nM.

`O=[N+]([O-])CC(c1ccccc1Cl)c1c(-c2ccccc2)[nH]c2ccccc12` (configuration not stated): the 50% effective concentration (EC50) was determined as 18 nM.

For the compound `Cn1cnc(C(C[N+](=O)[O-])c2c(-c3ccccc3)[nH]c3ccccc23)c1` (configuration not stated), the EC50 is greater than 10000 nM.

Regarding `O=[N+]([O-])CC(c1ccccc1C(F)(F)F)c1c(-c2ccccc2)[nH]c2ccccc12` (configuration not stated), the concentration for a half-maximal effect (EC50) amounted to 557 nM.

Take `COc1cccc(C(C[N+](=O)[O-])c2c(-c3ccccc3)[nH]c3ccccc23)c1` (configuration not stated): the EC50 came to 664 nM.

Turning to `O=[N+]([O-])CC(c1ccsc1)c1c(-c2ccccc2)[nH]c2ccccc12` (configuration not stated), the EC50 was determined as 119 nM.

`O=[N+]([O-])CC(c1ccc(N2CCOCC2)cc1)c1c(-c2ccccc2)[nH]c2ccccc12` (configuration not stated): the EC50 was greater than 10000 nM.

Take `Cc1ccc(C(C[N+](=O)[O-])c2c(-c3ccccc3)[nH]c3ccccc23)cc1` (configuration not stated): the EC50 worked out at 1440 nM.

Regarding `O=[N+]([O-])CC(c1c(-c2ccccc2)[nH]c2ccccc12)C1CCCCC1` (configuration not stated), the EC50 is 495 nM.

For the compound `Cn1ccnc1C(C[N+](=O)[O-])c1c(-c2ccccc2)[nH]c2ccccc12` (configuration not stated), the 50% effective concentration (EC50) came to 533 nM.

Take `O=[N+]([O-])CC(c1ccoc1)c1c(-c2ccccc2)[nH]c2ccccc12` (configuration not stated): the EC50 is 513 nM.

With `Cc1ccc2c(C(C[N+](=O)[O-])c3nccs3)c(-c3ccccc3)[nH]c2c1` (configuration not stated), the EC50 came to 50 nM.

Consider `Cc1cccc(C(C[N+](=O)[O-])c2c(-c3ccccc3)[nH]c3ccccc23)c1` (configuration not stated), for which the EC50 is 662 nM.

Turning to `O=[N+]([O-])CC(c1ccc(-c2ccccc2)cc1)c1c(-c2ccccc2)[nH]c2ccccc12` (configuration not stated), the EC50 is greater than 10000 nM.

As for `O=[N+]([O-])CC(c1ccc(N2CCCC2)cc1)c1c(-c2ccccc2)[nH]c2ccccc12` (configuration not stated), the EC50 came out at 618 nM.

In the next data set the target is T1, Cannabinoid receptor 1. Kind of data set: Positive allosteric modulatory activity at human CB1 receptor expressed in CHO-K1 cells assessed as increase in CP55940-induced beta-arrestin recruitment preincubated 90 mins followed by CP55940 addition and measured after 60 mins by PathHunter assay relative to CP55940. It is filed as cell-based.
Conditions: not given
For the compound `O=[N+]([O-])CC(c1ccc[nH]1)c1c(-c2ccccc2)[nH]c2ccccc12` (configuration not stated), the maximal response (Emax) came out at 0.7%.

Turning to `O=[N+]([O-])CC(c1cccc(N2CCCC2)c1)c1c(-c2ccccc2)[nH]c2ccccc12` (configuration not stated), the Emax was found to be 6.69%.

Regarding `Cn1cnc(C(C[N+](=O)[O-])c2c(-c3ccccc3)[nH]c3ccccc23)c1` (configuration not stated), the Emax was determined as 0.667%.

As for `COc1cccc(C(C[N+](=O)[O-])c2c(-c3ccccc3)[nH]c3ccccc23)c1` (configuration not stated), the Emax was determined as 4.96%.

Regarding `O=[N+]([O-])CC(c1ccsc1)c1c(-c2ccccc2)[nH]c2ccccc12` (configuration not stated), the Emax is 23.9%.

In the case of `O=[N+]([O-])CC(c1ccc(N2CCOCC2)cc1)c1c(-c2ccccc2)[nH]c2ccccc12` (configuration not stated), the Emax came out at 0%.

`O=[N+]([O-])CC(c1cccc(F)c1)c1c(-c2ccccc2)[nH]c2ccccc12` (configuration not stated): the maximum response (Emax) worked out at 15.7%.

Consider `Cc1ccc(C(C[N+](=O)[O-])c2c(-c3ccccc3)[nH]c3ccccc23)cc1` (configuration not stated), for which the Emax was 0%.

Consider `O=[N+]([O-])CC(c1c(-c2ccccc2)[nH]c2ccccc12)C1CCCCC1` (configuration not stated), for which the maximal response (Emax) was 26.8%.

In the case of `Cn1ccnc1C(C[N+](=O)[O-])c1c(-c2ccccc2)[nH]c2ccccc12` (configuration not stated), the Emax worked out at 0%.

In the case of `O=[N+]([O-])CC(c1ccoc1)c1c(-c2ccccc2)[nH]c2ccccc12` (configuration not stated), the Emax is 12.9%.

As to `Cc1cccc(C(C[N+](=O)[O-])c2c(-c3ccccc3)[nH]c3ccccc23)c1` (configuration not stated), the Emax worked out at 23.8%.

Take `O=[N+]([O-])CC(c1ccc(-c2ccccc2)cc1)c1c(-c2ccccc2)[nH]c2ccccc12` (configuration not stated): the Emax is 5%.

In the case of `O=[N+]([O-])CC(c1ccc(N2CCCC2)cc1)c1c(-c2ccccc2)[nH]c2ccccc12` (configuration not stated), the maximal response (Emax) was found to be 0%.

Staying with this data set, now noted: filed as positive allosteric modulator.
As to `Cc1ccc2c(C(C[N+](=O)[O-])c3cccs3)c(-c3ccccc3)[nH]c2c1` (configuration not stated), the Emax amounted to 78.2%.

As to `O=[N+]([O-])CC(c1ccccc1Cl)c1c(-c2ccccc2)[nH]c2ccccc12` (configuration not stated), the Emax is 93.4%.

Consider `O=[N+]([O-])CC(c1ccccc1)c1c(-c2ccccc2)[nH]c2ccccc12` (configuration not stated), for which the maximal response (Emax) was 54.1%.

Consider `O=[N+]([O-])CC(c1ccccc1C(F)(F)F)c1c(-c2ccccc2)[nH]c2ccccc12` (configuration not stated), for which the maximal response (Emax) was found to be 68.1%.

For the compound `O=[N+]([O-])CC(c1ccccc1F)c1c(-c2ccccc2)[nH]c2ccccc12` (configuration not stated), the Emax came out at 56%.

As for `Cc1ccc2c(C(C[N+](=O)[O-])c3nccs3)c(-c3ccccc3)[nH]c2c1` (configuration not stated), the Emax was 80.6%.
